This is an account of results in patent US12514938B2, “Fibroblast activation protein targeting peptides” (PERSPECTIVE THERAPEUTICS, INC., priority 2023, dated 2026).

For orientation: Ki means the dissociation constant of the complex between target and ligand, obtained from inhibition or displacement.

The assay has as its target T1, Human Fibroblast Activation Protein (FAP) (Homo sapiens, UniProt Q12884).
T1 sequence (Q12884 1-760): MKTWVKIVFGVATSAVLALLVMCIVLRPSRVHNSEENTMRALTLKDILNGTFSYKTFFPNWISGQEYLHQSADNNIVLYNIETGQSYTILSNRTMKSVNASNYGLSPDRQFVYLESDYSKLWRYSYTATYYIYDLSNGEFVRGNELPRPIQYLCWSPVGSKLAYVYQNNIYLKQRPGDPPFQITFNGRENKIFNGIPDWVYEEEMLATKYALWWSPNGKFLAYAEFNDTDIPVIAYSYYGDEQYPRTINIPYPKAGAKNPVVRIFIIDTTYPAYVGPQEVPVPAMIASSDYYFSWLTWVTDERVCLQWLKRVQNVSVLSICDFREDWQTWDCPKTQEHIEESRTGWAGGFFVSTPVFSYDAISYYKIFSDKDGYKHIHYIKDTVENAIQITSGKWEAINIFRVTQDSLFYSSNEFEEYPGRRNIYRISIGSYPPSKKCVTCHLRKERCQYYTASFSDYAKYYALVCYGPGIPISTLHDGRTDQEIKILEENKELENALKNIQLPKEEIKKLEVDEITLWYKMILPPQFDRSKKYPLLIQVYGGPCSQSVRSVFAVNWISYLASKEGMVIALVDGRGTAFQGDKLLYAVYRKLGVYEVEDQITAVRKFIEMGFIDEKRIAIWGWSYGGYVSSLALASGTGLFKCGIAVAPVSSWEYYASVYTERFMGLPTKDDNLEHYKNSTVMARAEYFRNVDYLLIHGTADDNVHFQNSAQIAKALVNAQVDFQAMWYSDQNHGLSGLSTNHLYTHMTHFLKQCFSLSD
Briefly: Enzyme inhibition assay against human FAP (substrate Z-GP-AMC), Example 1. Type of assay: biochemical. Conditions: human FAP 5 ng/well, 50 μM Z-GP-AMC; Ki from IC50 by Cheng-Prusoff. As to the method:
Binding Affinity Against Human Fibroblast Activation Protein (FAP)
An enzyme inhibition assay was performed to determine IC50 values and then the Cheng-Prusoff equation used to calculate the Ki given a known Km of the substrate Z-GP-AMC for FAP. To perform the assay, FAP (5 ng/well) and the test peptide at varying concentrations (i.e. 10^−6 to 10^−12) were incubated in a black 96-well plate for 10 minutes at RT on a shaker plate. Then, the substrate Z-GP-AMC was added to give a final concentration of 50 μM. The total reaction volume per well was 100 μL The reaction was allowed to incubate at RT on a shaker plate for 1 hour protected from light, and then fluorescence read with a BioTek Synergy LX plate reader at an ex/em (360/40 and 460/40). Experiments were performed in at least duplicate, and controls of buffer only, buffer and FAP enzyme, and buffer with substrate and FAP enzyme only were included for comparison. The buffer used for the assay was 50 mM Tris-HCl, 1M NaCl, and 1 mg/mL BSA, pH=7.5. Data was plotted in GraphPad Prism and non-linear regression used to calculate IC50 values. The compounds tested and Ki values of each were as follows: […]

*1 amine or outer side, *2 acyl side, *3 side chain or, on linkers, in order; H or OH if unused. Where a SMILES comes first, the peptide text is derived from it. Bridges are numbered along the chain shown (N, C = ends). [ ]: non-standard residue; d: D form. The star is where a group is joined. X3 = NC(=O)CN1CCN(CC(=O)O)CCN(CC(=O)NCCOCCOCCC(=O)N[C@@H](Cc2ccccc2)C(=O)NC(CC(=O)[*:1])CC(=O)[*:2])CCN(CC(=O)O)CC1; X2 = NC(=O)CN1CCN(CC(=O)O)CCN(CC(=O)NCCOCCOCCC(=O)NCCSCc2cc(C[*:1])cc(C[*:2])c2)CCN(CC(=O)O)CC1; X1 = NC(=O)CN1CCN(CC(=O)O)CCN(CC(=O)*)CCN(CC(=O)O)CC1; 2Nal = N[C@@H](Cc1ccc2ccccc2c1)C(=O)O; mXylylene = c1cc(C[*:1])cc(C[*:2])c1; oXylylene = c1ccc(C[*:2])c(C[*:1])c1; Dap = NC[C@H](N)C(=O)O; PEG2 = NCCOCCOCCC(=O)O

Consider `CC(=O)N[C@@H](CO)C(=O)N[C@H]1CSCc2ccccc2CSC[C@@H](C(N)=O)NC(=O)[C@H](Cc2c[nH]c3ccccc23)NC(=O)[C@H](Cc2ccc(O)cc2)NC(=O)[C@H](CCC(N)=O)NC(=O)[C@H](CCC(=O)O)NC(=O)[C@H](Cc2ccccc2)NC(=O)[C@@H]2CCCN2C(=O)[C@H]([C@@H](C)O)NC1=O` [VMT-FAP-2-29, Ac-S[C(oXdB)TPFEQYWC]-NH2] (Ac-SCTPFEQYWC-NH2; linker 2-10 via oXylylene), for which the Ki stood at 13600 pM. As for `C[C@@H](O)[C@@H]1NC(=O)[C@@H](NC(=O)[C@H](CO)NC(=O)CCOCCOCCNC(=O)CN2CCN(CC(=O)O)CCN(CC(N)=O)CCN(CC(=O)O)CC2)CSCc2ccccc2CSC[C@@H](C(N)=O)NC(=O)[C@H](Cc2c[nH]c3ccccc23)NC(=O)[C@H](Cc2c[nH]c3ccccc23)NC(=O)[C@H](CCC(N)=O)NC(=O)[C@H](CCC(=O)O)NC(=O)[C@H](Cc2ccccc2)NC(=O)[C@@H]2CCCN2C1=O` [VMT-FAP-2-30, PSC-PEG2-S-[C(oXdB)TPFEQWWC]-NH2] ({X1-PEG2}-SCTPFEQWWC-NH2; linker 2-10 via oXylylene), the figure is 40 pM; as for `CC(=O)N[C@@H](CO)C(=O)N[C@H]1CNC(=O)CC(NC(=O)[C@H](Cc2ccccc2)NC(=O)CCOCCOCCNC(=O)CN2CCN(CC(=O)O)CCN(CC(N)=O)CCN(CC(=O)O)CC2)CC(=O)NC[C@@H](C(N)=O)NC(=O)[C@H](Cc2c[nH]c3ccccc23)NC(=O)[C@H](Cc2c[nH]c3ccccc23)NC(=O)[C@H](CCC(N)=O)NC(=O)[C@H](CCC(=O)O)NC(=O)[C@H](Cc2ccccc2)NC(=O)[C@@H]2CCCN2C(=O)[C@H]([C@@H](C)O)NC1=O` (stereo partly drawn) [VMT-FAP-2-33, Ac-S-[Dap(bGlu(F-PEG2-PSC))TPFEQWWDap]-NH2] (Ac-S[Dap]TPFEQWW[Dap]-NH2; linker 2-10 via X3 (inferred)), 1260 pM. The value for `C[C@@H](O)[C@@H]1NC(=O)[C@@H](NC(=O)CCOCCOCCNC(=O)CN2CCN(CC(=O)O)CCN(CC(N)=O)CCN(CC(=O)O)CC2)CSCc2ccccc2CSC[C@@H](C(N)=O)NC(=O)[C@H](Cc2c[nH]c3ccccc23)NC(=O)[C@H](Cc2c[nH]c3ccccc23)NC(=O)[C@H](CCC(N)=O)NC(=O)[C@H](CCC(=O)O)NC(=O)[C@H](Cc2ccccc2)NC(=O)[C@@H]2CCCN2C1=O` [VMT-FAP-2-36, PSC-PEG2-[C(oXdB)TPFEQWWC]-NH2] ({X1-PEG2}-CTPFEQWWC-NH2; linker 1-9 via oXylylene) was 760 pM; that for `C[C@@H](O)[C@@H]1NC(=O)[C@@H](NC(=O)[C@H](CO)NC(=O)[C@H](Cc2ccccc2)NC(=O)CCOCCOCCNC(=O)CN2CCN(CC(=O)O)CCN(CC(N)=O)CCN(CC(=O)O)CC2)CSCc2ccccc2CSC[C@@H](C(N)=O)NC(=O)[C@H](Cc2c[nH]c3ccccc23)NC(=O)[C@H](Cc2c[nH]c3ccccc23)NC(=O)[C@H](CCC(N)=O)NC(=O)[C@H](CCC(=O)O)NC(=O)[C@H](Cc2ccccc2)NC(=O)[C@@H]2CCCN2C1=O` [VMT-FAP-2-39, PSC-PEG2-F-S-[C(oXdB)TPFEQWWC]-NH2] ({X1-PEG2}-FSCTPFEQWWC-NH2; linker 3-11 via oXylylene) was 670 pM. As for `CC(=O)N[C@H]1CSCc2ccccc2CSC[C@@H](C(N)=O)NC(=O)[C@H](Cc2c[nH]c3ccccc23)NC(=O)[C@H](Cc2c[nH]c3ccccc23)NC(=O)[C@H](CCC(N)=O)NC(=O)[C@H](CCC(=O)O)NC(=O)[C@H](Cc2ccccc2)NC(=O)[C@@H]2CCCN2C(=O)[C@H]([C@@H](C)O)NC1=O` [VMT-FAP-2-40, Ac-[C(oXdB)TPFEQWWC]-NH2] (Ac-CTPFEQWWC-NH2; linker 1-9 via oXylylene), the figure is 1270 pM. Take `C[C@@H](O)[C@@H]1NC(=O)[C@@H](NC(=O)[C@H](CC(=O)O)NC(=O)CCOCCOCCNC(=O)CN2CCN(CC(=O)O)CCN(CC(N)=O)CCN(CC(=O)O)CC2)CSCc2ccccc2CSC[C@@H](C(N)=O)NC(=O)[C@H](Cc2c[nH]c3ccccc23)NC(=O)[C@H](Cc2c[nH]c3ccccc23)NC(=O)[C@H](CCC(N)=O)NC(=O)[C@H](CCC(=O)O)NC(=O)[C@H](Cc2ccccc2)NC(=O)[C@@H]2CCCN2C1=O` [VMT-FAP-2-41, PSC-PEG2-D-[C(oXdB)TPFEQWWC]-NH2] ({X1-PEG2}-DCTPFEQWWC-NH2; linker 2-10 via oXylylene): the Ki is 190 pM. As to `C[C@@H](O)[C@@H]1NC(=O)[C@@H](NC(=O)[C@H](CO)NC(=O)CCOCCOCCNC(=O)CN2CCN(CC(=O)O)CCN(CC(N)=O)CCN(CC(=O)O)CC2)CSCc2ccccc2CSC[C@@H](C(N)=O)NC(=O)[C@H](Cc2c[nH]c3ccccc23)NC(=O)[C@H](Cc2c[nH]c3ccccc23)NC(=O)[C@H](CCC(N)=O)NC(=O)[C@H](CCC(=O)O)NC(=O)[C@H](Cc2c[nH]c3ccccc23)NC(=O)[C@@H]2CCCN2C1=O` [VMT-FAP-2-42, PSC-PEG2-S-[C(oXdB)TPWEQWWC]-NH2] ({X1-PEG2}-SCTPWEQWWC-NH2; linker 2-10 via oXylylene), the Ki worked out at 290 pM. As to `C[C@@H](O)[C@@H]1NC(=O)[C@@H](NC(=O)[C@H](CO)NC(=O)CCOCCOCCNC(=O)CN2CCN(CC(=O)O)CCN(CC(N)=O)CCN(CC(=O)O)CC2)CSCc2ccccc2CSC[C@@H](C(N)=O)NC(=O)[C@H](Cc2c[nH]c3ccccc23)NC(=O)[C@H](Cc2c[nH]c3ccccc23)NC(=O)[C@H](CCC(=O)O)NC(=O)[C@H](CCC(=O)O)NC(=O)[C@H](Cc2ccccc2)NC(=O)[C@@H]2CCCN2C1=O` [VMT-FAP-2-43, PSC-PEG2-S-[C(oXdB)TPFEEWWC]-NH2] ({X1-PEG2}-SCTPFEEWWC-NH2; linker 2-10 via oXylylene), the inhibition constant (Ki) was found to be 70 pM. As for `C[C@@H](O)[C@@H]1NC(=O)[C@@H](NC(=O)[C@H](CO)NC(=O)CCOCCOCCNC(=O)CN2CCN(CC(=O)O)CCN(CC(N)=O)CCN(CC(=O)O)CC2)CSCc2cccc(c2)CSC[C@@H](C(N)=O)NC(=O)[C@H](Cc2c[nH]c3ccccc23)NC(=O)[C@H](Cc2c[nH]c3ccccc23)NC(=O)[C@H](CCC(N)=O)NC(=O)[C@H](CCC(=O)O)NC(=O)[C@H](Cc2c[nH]c3ccccc23)NC(=O)[C@@H]2CCCN2C1=O` [VMT-FAP-2-48, PSC-PEG2-S-[C(mXdB)TPWEQWWC]-NH2] ({X1-PEG2}-SCTPWEQWWC-NH2; linker 2-10 via mXylylene), the inhibition constant Ki came to 350 pM. Regarding `CC(=O)N[C@H]1CSCc2cc(CSCCNC(=O)CCOCCOCCNC(=O)CN3CCN(CC(=O)O)CCN(CC(N)=O)CCN(CC(=O)O)CC3)cc(c2)CSC[C@@H](C(N)=O)NC(=O)[C@H](Cc2c[nH]c3ccccc23)NC(=O)[C@H](Cc2c[nH]c3ccccc23)NC(=O)[C@H](CCC(N)=O)NC(=O)[C@H](CCC(=O)O)NC(=O)[C@H](Cc2c[nH]c3ccccc23)NC(=O)[C@@H]2CCCN2C(=O)[C@H]([C@@H](C)O)NC1=O` [VMT-FAP-2-51, Ac-[C(mXtB(CA-PEG2-PSC))TPWEQWWC]-NH2] (Ac-CTPWEQWWC-NH2; linker 1-9 via X2), the inhibitory constant (Ki) was 280 pM.

For the molecule `C[C@@H](O)[C@@H]1NC(=O)[C@@H](NC(=O)[C@H](CO)NC(=O)CCOCCOCCNC(=O)CN2CCN(CC(=O)O)CCN(CC(N)=O)CCN(CC(=O)O)CC2)CSCc2ccccc2CSC[C@@H](C(N)=O)NC(=O)[C@H](Cc2c[nH]c3ccccc23)NC(=O)[C@H](Cc2c[nH]c3ccccc23)NC(=O)[C@H](CCC(N)=O)NC(=O)[C@H](CCC(=O)O)NC(=O)[C@H](Cc2ccc3ccccc3c2)NC(=O)[C@@H]2CCCN2C1=O` [VMT-FAP-2-53, PSC-PEG2-[SC(oXdB)TP2-NalEQWWC]-NH2] ({X1-PEG2}-SCTP[2Nal]EQWWC-NH2; linker 2-10 via oXylylene), the Ki came to 340 pM. Take `CC(=O)N[C@@H](CO)C(=O)N[C@H]1CSCc2cc(CSCCNC(=O)CCOCCOCCNC(=O)CN3CCN(CC(=O)O)CCN(CC(N)=O)CCN(CC(=O)O)CC3)cc(c2)CSC[C@@H](C(N)=O)NC(=O)[C@H](Cc2c[nH]c3ccccc23)NC(=O)[C@H](Cc2c[nH]c3ccccc23)NC(=O)[C@H](CCC(N)=O)NC(=O)[C@H](CCC(=O)O)NC(=O)[C@H](Cc2c[nH]c3ccccc23)NC(=O)[C@@H]2CCCN2C(=O)[C@H]([C@@H](C)O)NC1=O` [VMT-FAP-2-55, Ac-S-[C(mXtB(CA-PEG2-PSC))TPWEQWWC]-NH2] (Ac-SCTPWEQWWC-NH2; linker 2-10 via X2): the Ki is 1120 pM.
